Results from patent publication US7671181B2, “Polynucleotides encoding coccidian parasite casein kinase I, a chemotherapeutic target for antiprotozoal agents” (Merck Sharp & Dohme Corp., priority 2004, dated 2010).

Legend:
TgCKIβ = TgCKIβ (Toxoplasma gondii, UniProt Q6QNM0); assay: Casein kinase assay, recombinant FLAGTgCKIβ; type: biochemical; details: recombinant enzyme; read-out: IC50 against TgCKIβ
Method: (§1) Protein kinase assays—Casein kinase activity was assayed essentially as described (Donald, R. G. K. et al., 2002, supra) using 96-well phosphocellulose plates (MAPH-NOB, Millipore; Billerica, Mass.) to capture ^33P-phosphorylated peptide or casein substrates. Kinase reactions were carried out in 40 μl volumes containing 25 mM Hepes, pH 7.4, 10 mM MgCl2, 20 mM β-glycerophosphate, 1 mM DTT, 250 μM substrate, 1 mg/mL BSA, 2 μM ATP, and 0.01 μM [γ-^33P]ATP (Perkin-Elmer, 3000 Ci/mmol). […] Casein (5% solution), partially dephosphorylated α-casein and β-casein were obtained from Sigma.
(§2) A variety of commercially available peptide substrates were evaluated. From Calbiochem (San Diego, Calif.): CKI substrate (RRKDLHDDEEDEAMSITA; SEQ ID NO:13); CKII substrate (RRADDSDDDDD; SEQ ID NO:14); Syntide-2 substrate (PLARTLSVAGLPGKK; SEQ ID NO:15); CaM kinase II substrate (281-291) (MHKNETVECLK; SEQ ID NO:16). From Promega: CKI substrate (DDDEESITRR; SEQ ID NO:17) and kemptide (LRRASLG; SEQ ID NO:18). From New England Biolabs (Beverly, Mass.): CKI phosphopeptide substrate (KRRRALS(p)VASLPGL; SEQ ID NO:19), and CKII substrate (RRREEETEEE; SEQ ID NO:20). PKG assays were performed with kemptide as substrate and 10 μM cGMP. CDPK was assayed with Syntide-2 substrate and in the presence of 100 μM CaCl2.
Purification of recombinant CKI enzymes—E. coli strain BL21 Origami™ (Novagen) was transformed with FLAGTgCKIα and FLAGTgCKIβ expression vectors, and colonies were expanded into 250 mL LB cultures grown at 37° C. Expression was induced with 1 mM IPTG once cultures had reached an OD600nm of 0.3-0.5, and the transformed bacteria were harvested 4-6 hours later. Cell pellets were resuspended in 15 mL of lysis buffer containing protease inhibitors and lysates prepared as described by the supplier (Bugbuster™ reagents, Novagen). The concentration of NaCl in the lysate was adjusted to 0.5 M, and 0.5 mL of FLAG-agarose beads were added (Sigma). The mixture was allowed to rock in a Nutator mixer (Becton-Dickinson; San Jose, Calif.) for 2 hours at 4° C. The slurry was then poured into an empty column and the matrix washed with 50 mL of wash buffer (50 mM Tris-HCl, pH 7.4, 0.5M NaCl, 10% glycerol, 1 mM DTT, 1 mM EDTA). Enzyme was eluted with 5 mL of 0.4 mg/mL FLAG peptide (Sigma) in NaCl-free wash buffer and concentrated with a centrifuge filtration unit (Amicon Ultra®, 10 kDa cut-off, Millipore). Protein was measured with a micro-BCA reagent (Pierce) following a TCA-sodium deoxycholate step to remove residual FLAG peptide (Brown et al., 1989, Anal. Biochem. 180:136-139). Using this procedure, and SDS-PAGE analysis, the yield of FLAGTgCKIβ was estimated as ˜200 μg of enzyme with >90% purity. Purification of FLAGTgCKIα was much less efficient with only about 1 μg of ˜10% pure enzyme obtained per 250 mL bacterial culture.
(§3) Preparations of FLAGTgCKIα and FLAGTgCKIβ were purified further on a SMART system FPLC 0.1 mL MonoQ anion exchange column (Pharmacia; New York, N.Y.) equilibrated in buffer A (50 mM Hepes, pH 7.4, 10% glycerol, 1 mM DTT) at room temperature. Samples of FLAG-affinity purified enzyme (10-100 μg) were syringe-passed through a 0.22 μm (pore-size) filter before loading on the column. A linear salt gradient was applied (0-500 mM in 3 mL at 100 μl/min) and 100 μl fractions were collected and analyzed by SDS-PAGE and for CKI activity. Fractions with peak activity were retained for further analysis. The degree of purity of the partially purified FLAGTgCKIα was estimated by densitometry of silver stained SDS-PAGE gels. A recombinant rat CKIδ enzyme used for control purposes was obtained from New England Biolabs.

rat CKIδ = biological target: T1, rat CKIδ (Rattus norvegicus, UniProt Q06486); assay: Casein kinase assay, recombinant rat CKIδ control enzyme; type: biochemical; details: read-out: IC50 against rodent CKIδ
T1 construct: purchased New England Biolabs
T1 sequence (Q06486 1-317 limits assumed): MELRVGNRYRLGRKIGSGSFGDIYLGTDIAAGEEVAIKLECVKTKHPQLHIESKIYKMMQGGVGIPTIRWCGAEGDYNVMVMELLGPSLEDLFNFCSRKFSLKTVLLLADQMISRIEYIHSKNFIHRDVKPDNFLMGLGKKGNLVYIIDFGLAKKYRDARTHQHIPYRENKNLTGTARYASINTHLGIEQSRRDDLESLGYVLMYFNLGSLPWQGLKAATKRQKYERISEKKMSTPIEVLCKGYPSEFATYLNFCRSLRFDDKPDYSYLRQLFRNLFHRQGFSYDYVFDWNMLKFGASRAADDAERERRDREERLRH
Method: (§4) Protein kinase assays—Casein kinase activity was assayed essentially as described (Donald, R. G. K. et al., 2002, supra) using 96-well phosphocellulose plates (MAPH-NOB, Millipore; Billerica, Mass.) to capture ^33P-phosphorylated peptide or casein substrates. Kinase reactions were carried out in 40 μl volumes containing 25 mM Hepes, pH 7.4, 10 mM MgCl2, 20 mM β-glycerophosphate, 1 mM DTT, 250 μM substrate, 1 mg/mL BSA, 2 μM ATP, and 0.01 μM [γ-^33P]ATP (Perkin-Elmer, 3000 Ci/mmol). The reactions were initiated by the addition of enzyme and incubated at room temperature for 60 min. Casein (5% solution), partially dephosphorylated α-casein and β-casein were obtained from Sigma.
as §3, with “A recombinant rat CKIδ enzyme used for control purposes was obtained from New England Biolabs.” left out

TgCKIα = TgCKIα (Toxoplasma gondii, UniProt Q6QNM1); assay: Casein kinase assay, TgCKIα (recombinant FLAGTgCKIα or partially purified native); type: biochemical; parameters: other: recombinant or native forms of TgCKIα
Sequence of TgCKIα (Q6QNM1 whole entry, looked up): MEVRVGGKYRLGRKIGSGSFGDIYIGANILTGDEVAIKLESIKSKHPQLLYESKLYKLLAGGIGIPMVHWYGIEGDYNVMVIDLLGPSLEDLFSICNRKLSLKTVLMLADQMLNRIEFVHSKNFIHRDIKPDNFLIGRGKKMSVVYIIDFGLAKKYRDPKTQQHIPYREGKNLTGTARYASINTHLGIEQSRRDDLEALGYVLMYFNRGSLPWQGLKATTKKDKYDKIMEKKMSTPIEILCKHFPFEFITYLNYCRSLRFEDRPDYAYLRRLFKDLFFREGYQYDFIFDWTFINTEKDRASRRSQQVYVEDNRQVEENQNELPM
Method: as §1, §2
(§5) Purification of recombinant CKI enzymes—E. coli strain BL21 Origami™ (Novagen) was transformed with FLAGTgCKIα and FLAGTgCKIβ expression vectors, and colonies were expanded into 250 mL LB cultures grown at 37° C. […] Protein was measured with a micro-BCA reagent (Pierce) following a TCA-sodium deoxycholate step to remove residual FLAG peptide (Brown et al., 1989, Anal. Biochem. 180:136-139). […]
Preparations of FLAGTgCKIα and FLAGTgCKIβ were purified further on a SMART system FPLC 0.1 mL MonoQ anion exchange column (Pharmacia; New York, N.Y.) equilibrated in buffer A (50 mM Hepes, pH 7.4, 10% glycerol, 1 mM DTT) at room temperature. […] A linear salt gradient was applied (0-500 mM in 3 mL at 100 μl/min) and 100 μl fractions were collected and analyzed by SDS-PAGE and for CKI activity. […]

T. gondii tachyzoites = assay: [3H]-uracil uptake assay of parasite growth inhibition in infected HFF cell monolayers; type: cell-based, Toxoplasma gondii
From the text: Host cells and parasite cultures—RH strain or RH ΔHXGPRT strain tachyzoites of T. gondii were maintained by serial passage in confluent monolayers of human foreskin fibroblasts (“HFF”) as described (Roos, D. S. et al., 1994, Methods Cell Biol. 45:27-63). A modified [^3H]-uracil uptake assay (Pfefferkorn, E. R. and Pfefferkorn, L. C., 1977, J. Protozool. 24:449-453) adapted for use in 96-well scintillation plates (Cytostar-T, Amersham; Piscataway, N.J.) was used to measure parasite growth inhibition. Each well, previously seeded with HFF cells, was inoculated with T. gondii tachyzoites (2×10^4) in 200 μl of growth media containing 2 μCi [5,6]-^3H-uracil (Perkin-Elmer NEN; Boston, Mass.) and serially diluted compound. Following incubation at 37° C. for 36-48 hours, tritium-incorporation into host cell monolayers was directly counted in a microplate scintillation counter (MicroBeta, PerkinElmer-Wallac).

[1] = test system: T. gondii PKG, CKIα and -β, and CDPK1; native E. tenella CKIα; assay: Protein kinase assays, the parasite kinases tested (Table 2 panel); type: biochemical
Method: as §4, §2

mammalian CDK1 = mammalian CDK1 (Homo sapiens, UniProt P06493); details: Knockaert et al., 2002; cited from earlier work
Sequence of mammalian CDK1 (P06493 whole entry): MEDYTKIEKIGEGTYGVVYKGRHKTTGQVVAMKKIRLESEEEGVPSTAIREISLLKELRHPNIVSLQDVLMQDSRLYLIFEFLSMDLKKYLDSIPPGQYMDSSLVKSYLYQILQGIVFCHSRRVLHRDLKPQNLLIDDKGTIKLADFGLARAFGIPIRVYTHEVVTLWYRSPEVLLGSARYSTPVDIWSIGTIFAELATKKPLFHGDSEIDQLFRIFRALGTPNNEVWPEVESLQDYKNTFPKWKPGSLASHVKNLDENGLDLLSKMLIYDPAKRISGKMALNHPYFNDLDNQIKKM
Sequence of mammalian CDK1 (P14635 whole entry partner): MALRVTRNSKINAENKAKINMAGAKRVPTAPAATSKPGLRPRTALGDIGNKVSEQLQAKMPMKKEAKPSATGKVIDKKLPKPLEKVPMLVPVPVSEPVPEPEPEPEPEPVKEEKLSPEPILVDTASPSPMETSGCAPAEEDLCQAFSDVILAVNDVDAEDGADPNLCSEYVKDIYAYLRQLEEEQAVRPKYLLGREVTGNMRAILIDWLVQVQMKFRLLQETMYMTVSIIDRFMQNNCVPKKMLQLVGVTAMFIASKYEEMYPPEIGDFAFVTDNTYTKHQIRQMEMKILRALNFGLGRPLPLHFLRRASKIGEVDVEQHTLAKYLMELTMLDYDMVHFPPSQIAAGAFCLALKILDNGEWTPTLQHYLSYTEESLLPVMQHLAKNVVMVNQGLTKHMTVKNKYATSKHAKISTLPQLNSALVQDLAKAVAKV

mammalian CDK5 = mammalian CDK5 (Homo sapiens, UniProt Q00535); details: Knockaert et al., 2002; cited from earlier work
Sequence of mammalian CDK5 (Q00535 whole entry): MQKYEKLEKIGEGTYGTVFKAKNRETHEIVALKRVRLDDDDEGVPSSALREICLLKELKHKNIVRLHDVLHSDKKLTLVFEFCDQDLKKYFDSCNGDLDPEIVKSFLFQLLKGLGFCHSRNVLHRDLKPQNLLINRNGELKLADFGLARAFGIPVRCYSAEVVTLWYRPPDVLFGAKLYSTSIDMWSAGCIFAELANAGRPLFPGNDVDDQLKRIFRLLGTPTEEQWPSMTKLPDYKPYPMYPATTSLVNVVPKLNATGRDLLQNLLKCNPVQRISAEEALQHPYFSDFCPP
Sequence of mammalian CDK5 (Q15078 99-307 partner limits assumed): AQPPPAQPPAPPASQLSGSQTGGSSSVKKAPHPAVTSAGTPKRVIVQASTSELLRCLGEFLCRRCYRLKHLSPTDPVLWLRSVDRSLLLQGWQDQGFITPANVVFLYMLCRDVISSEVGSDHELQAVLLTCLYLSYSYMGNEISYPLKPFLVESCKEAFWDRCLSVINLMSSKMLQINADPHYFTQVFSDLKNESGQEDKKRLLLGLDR

[2] = test system: CC(C)C[C@H](NC(=O)CNC(=O)[C@@H]1CCCN1C(=O)[C@H](CC(C)C)NC(=O)[C@H](CO)NC(=O)[C@H](C)NC(=O)[C@@H](NC(=O)[C@H](COP(=O)(O)O)NC(=O)[C@H](CC(C)C)NC(=O)[C@H](C)NC(=O)[C@H](CCCNC(=N)N)NC(=O)[C@H](CCCNC(=N)N)NC(=O)[C@H](CCCNC(=N)N)NC(=O)[C@@H](N)CCCCN)C(C)C)C(=O)O; assay: Casein kinase assay, TgCKIα (recombinant FLAGTgCKIα or partially purified native); type: biochemical; details: other: substrate titration, 2 μM ATP; pH 7.4; 37.0 °C
Method: as §1
(§6) A variety of commercially available peptide substrates were evaluated. From Calbiochem (San Diego, Calif.): CKI substrate (RRKDLHDDEEDEAMSITA; SEQ ID NO:13); CKII substrate (RRADDSDDDDD; SEQ ID NO:14); Syntide-2 substrate (PLARTLSVAGLPGKK; SEQ ID NO:15); CaM kinase II substrate (281-291) (MHKNETVECLK; SEQ ID NO:16). From Promega: CKI substrate (DDDEESITRR; SEQ ID NO:17) and kemptide (LRRASLG; SEQ ID NO:18). […]
as §5

[3] = substrate: CC(C)C[C@H](NC(=O)CNC(=O)[C@@H]1CCCN1C(=O)[C@H](CC(C)C)NC(=O)[C@H](CO)NC(=O)[C@H](C)NC(=O)[C@@H](NC(=O)[C@H](COP(=O)(O)O)NC(=O)[C@H](CC(C)C)NC(=O)[C@H](C)NC(=O)[C@H](CCCNC(=N)N)NC(=O)[C@H](CCCNC(=N)N)NC(=O)[C@H](CCCNC(=N)N)NC(=O)[C@@H](N)CCCCN)C(C)C)C(=O)O; assay: Casein kinase assay, recombinant FLAGTgCKIβ; type: biochemical; details: other: substrate titration, 2 μM ATP; pH 7.4; 37.0 °C
Method: as §1, §6, §5

With NC1=NC(=O)/C(=C2\CCNC(=O)c3[nH]c(Br)cc32)N1 [Hymenialdisine] the IC50 (TgCKIβ) was 7 to 10 nM, the IC50 (rat CKIδ) was 60 nM and the IC50 (TgCKIα) was 7 to 10 nM.

In the case of O=C1Cc2c([nH]c3ccc([N+](=O)[O-])cc23)-c2ccccc2N1 [alsterpaullone], the IC50 (T. gondii tachyzoites; Toxoplasma gondii, infected HFF cell monolayers, read-out: IC50, antiparasitic activity in the whole cell assay) is listed as 1200 nM, the “activity against the parasite kinases tested” value [1] is listed as “Neither kenpaullone nor alsterpaullone showed any activity” and the “potency against mammalian CDK1 relative to kenpaullone” value (mammalian CDK1) is listed as “at least 10 fold”. The “potency against mammalian CDK5 relative to kenpaullone” value (mammalian CDK5) was “at least 10 fold”.

With O=C1Cc2c([nH]c3ccc(Br)cc23)-c2ccccc2N1 [kenpaullone] the “activity against cultured T. gondii parasites” value (T. gondii tachyzoites; uracil uptake / whole cell assay) was “inactive” and the “activity against the parasite kinases tested” value [1] was “Neither kenpaullone nor alsterpaullone showed any activity”.

Molecule TgCKIα (Toxoplasma gondii) has a Vmax [2] of 26 nmol/min/mg.

B1: TgCKIβ (Toxoplasma gondii) (protein)
chain: MAHHQDTRNHTGVGPSSSIPLKDLKIAGVWKIGRKIGSGSFGDIYKGLNSQTGQEVALKVESTKAKHPQLLYEYKLLKHLQGGTGIAQVFCCETAGDHNIMAMELLGPSLEDVFNLCNRTFSLKTILLLADQFLQRVEYIHSKNFIHRDIKPDNFLLGGAGNQNTIYVIDFGLAKKFRDPKTHQHIPYRENKNLTGTARYASISAHLGSEQSRRDDLEAVGYVLMYFCRGGTLPWQGIKANTKQEKYHKIMEKKMSTPVEVLCKGYPSEFATYLHYCRSLRFEDRPDYAYLKRLFRDLYIKEGYDDSDREFDWTVKLSSRSLGPPSSRAQHVLLSQDTRTRGKRETDRPVAARSGDRERGIHFSNGNVGNPSMATNPGGLSVMVHERTSLVDQGDRGSRETSTRKEDAKDGRWPGGRFSCLPLLCRRSPTKA
With B1 the Km [3] was 79 µM and the Vmax [3] was 37 nmol/min/mg.
